According to patent publication US20260109721A1, “IONIZABLE CATIONIC LIPIDS INCORPORATING SILICON: SYNTHESIS AND LNP FORMULATION” (priority 2023, published 2026):
Where two headings read alike, the source gives them in different places.

What was measured:
HeLa cells [1] = experiment: Cell viability assessment with resazurin assay (Method A); format: cell-based
Protocol: (§1) The synthesized lipids were tested in term of in vitro transfection efficacy and toxicity on HeLa cells. In order to perform the mentioned biological tests, appropriate LNPs had to be formulated from the synthesized lipids. The formulation technique was different in Method A and B. The particle size, polydispersity index (PDI) and zeta potential of resulting LNPs were determined by means of Dynamic Light Scattering technique (DLS). Prior to biological testing the encapsulation efficiency (EE) of the loaded LNPs was determined by using RiboGreen RNA assay. In case of Method A Luc mRNA while in case of Method B GFP mRNA was transfected into the cells. In parallel with the transfection experiments, toxicity of the investigated LNPs was determined, in case of Method A resazurin assay while in case of Method B MTT assay was used. Additionally, the toxicity of the lipids was investigated on HepG2 cells and IC50 values were determined.
This protocol is used to determine the metabolic activity of cells as a measure for cell viability after exposure to potentially toxic substances. Resazurin is converted in mitochondria by reduction to resorufin, which has a much higher fluorescence at ˜600 nm compared to unconverted resazurin. A lower amount/percentage of conversion is correlated with reduced cellular metabolism and indirectly to cellular death and toxicity. Care must be taken with interpretation of the read-out, as 50% reduction in resazurin conversion may mean 50% reduction of cellular metabolism of 100% alive cells, or 50% of cells dead, and any combination in between.
• 1. Prepare 0.25 mg/ml stock solution resazurin in fresh cell culture medium. Resazurin is auto-reducing over time in solution, especially in medium, and fresh stocks should be prepared every 2-3 days. Stocks should be stored at 4° C. and protected from light. For HeLa cells, DMEM/F12 with 10% FCS is used. • 2. Dilute stock solution 10× in fresh cell culture medium to 0.025 mg/ml->ready for application on cells. For HeLa cells, DMEM/F12 with 10% FCS is used. • 3. Collect 96-well plate and replace cell-culture spent medium with 100 μl per well resazurin solution. Add some resazurin solution for background measurement in wells not containing cells. • 4. Incubate for 50 minutes in incubator at 37° C., 5% CO2, 95% RH. • 5. Transfer resazurin solution to a fresh 96- or 384-well plate. • 6. Measure in plate reader using 540/25 nm (excitation) and 610/40 nm (emission) using standard settings (PTM low/OD-1.0). • 7. Subtract the average background measurement from all samples. Set the average of the negative controls (well receiving OptiMEM only during transfection) to 100% and express all values as percentage of the control activity. Typically, at lower levels of treatment, elevation of metabolic activity is shown, whereas for toxic substances, at toxic concentrations sigmoidal curves can be obtained, with lower activity indicating higher toxicity.

HeLa cells [2] = experiment: Transfection efficiency with Luciferase (SecNLuc) mRNA, Nano-Glo assay (Method A); format: cell-based; conditions: Luc mRNA, 24 h, luminescence; for Transfection 10 ng mRNA: 10 ng mRNA/well; for Transfection 50 ng mRNA: 50 ng mRNA/well; for Transfection 100 ng mRNA: 100 ng mRNA/well
Protocol: as §1
• 1. Prepare mRNA solution by adding 100 ng mRNA (SecNLuc, #P009024, RiboPro) to 5 μl Opti-MEM • multiply by number of wells, include different concentrations and add 10% extra • a standard set-up we use is 100 ng-50 ng-10 ng mRNA/well in triplicate, which would need […] mRNA (includes 10% extra)
• 2. (If applicable) Prepare different concentrations in Opti-MEM (for instance 100/50/10 ng). • 3. Add 10 μl to each well and mix carefully by pipetting. • 4. Mix by swirling the plate horizontally at modest speed. Reverse in direction 3 times. • 5. Incubate for 24 hours (incubator).
This protocol is applied to measure luciferase activity for secreted NanoLuc and is based on the protocol by Promega (Nano-Glo® Luciferase Assay System #N1110-1150). The protocol is designed for a 384-wells plate, but volumes can be changed accordingly for other plates.
• 1. Plate cells (HeLa) in 96-well plate, grow until 80% confluent and transfect with SecNanoLuc mRNA and incubate for the desired period (24 h). • 2. After incubation, the translated protein is accumulated in the medium. Transfer medium to a new plate or tubes. • 3. Transfer 12 μl of each sample to a black-walled, clear-bottom 384-well plate • Black-walled plates are important to prevent shine-through of luminescence from other wells; alternatively, multiple wells between samples can be left empty. • 4. Set-up plate reader • 5. Prepare the desired amount of Nano-Glo® Luciferase Assay Reagent by combining one volume of Nano-Glo® Luciferase Assay Substrate with 50 volumes of Nano-Glo® Luciferase Assay Buffer: • a. composition: 100 mM MES pH 6; 1 mM EDTA; […]; 150 mM KCl; 1 mM DTT; 35 mM Thiourea; • b. briefly spin tubes containing substrate in a microcentrifuge before use. • 6. Add and mix (by pipetting) 12 μl Nano-Glo® Luciferase Assay Reagent per well • Wait approximately 3 minutes before measuring luminescence. […] Measure luminescence in plate reader using standard protocol luciferase (this includes mixing sample in plate reader)

Row | Compound | Cell Viability % (Average metabolic rate over all doses, Resazurin) (HeLa cells [1]) | Transfection 10 ng mRNA (HeLa cells [2]) | Transfection 50 ng mRNA (HeLa cells [2]) | Transfection 100 ng mRNA (HeLa cells [2]) | Cell Viability % (Average metabolic rate over all doses, Resazurin) (HeLa cells [1]; human)
1 | CCCCCCCCC(CCCCCC)C(=O)OCCCCCCN(CCCCO)CCCCCCOC(=O)C(CCCCCC)CCCCCCCC (centres unmarked) [ALC-0315, reference compound] | 97% | 2.38E+06 | 1.22E+07 | 9.34E+06 | 
2 | CCCCC/C=C\C/C=C\CCCCCCCCOC(CCCCCN(CCO)CCO)O[Si](C)(C)OCCCCCCCC/C=C\C/C=C\CCCCC (centres unmarked) [Example 39, (21Z,24Z)-3-(2-hydroxyethyl)-11,11-dimethyl-9-(((9Z,12Z)-octadeca-9,12-dien-1-yl)oxy)-10,12-dioxa-3-aza-11-silatriaconta-21,24-dien-1-ol] |  | 1.46E+05 | 1.40E+06 | 4.78E+06 | 102%
3 | CCCCC/C=C\C/C=C\CCCCCCCCO[Si](C)(C)OC(CCCCCCC/C=C\C/C=C\CCCCC)OCCCCCCN(CCO)CCO (centres unmarked) [Example 40, (23Z,26Z)-11-((8Z,11Z)-heptadeca-8,11-dien-1-yl)-3-(2-hydroxyethyl)-13,13-dimethyl-10,12,14-trioxa-3-aza-13-siladotriaconta-23,26-dien-1-ol] |  | 1.47E+05 | 2.13E+06 | 8.09E+06 | 100%
4 | CCCCCCCC/C=C\CCCCCCCCOC(CCCCCCCCCCCCCCC)O[Si](C)(C)OCCCCCCN(CCO)CCO (centres unmarked) [Example 41, (Z)-3-(2-hydroxyethyl)-11,11-dimethyl-13-pentadecyl-10,12,14-trioxa-3-aza-11-siladotriacont-23-en-1-ol] |  | 3.11E+05 | 3.64E+06 | 1.03E+07 | 98%
5 | CCCCCCCC/C=C\CCCCCCCC(OCCCCCCCCCCCCCCCC)O[Si](C)(C)OCCCCCCN(CCO)CCO (centres unmarked) [Example 42, (Z)-13-(heptadec-8-en-1-yl)-3-(2-hydroxyethyl)-11,11-dimethyl-10,12,14-trioxa-3-aza-11-silatriacontan-1-ol] |  | 6.16E+04 | 1.32E+06 | 5.53E+06 | 98%
6 | CCCCC/C=C\C/C=C\CCCCCCCCOC(CCCCCCCCCCCCCCC)O[Si](C)(C)OCCCCCCN(CCO)CCO (centres unmarked) [Example 43, (23Z,26Z)-3-(2-hydroxyethyl)-11,11-dimethyl-13-pentadecyl-10,12,14-trioxa-3-aza-11-siladotriaconta-23,26-dien-1-ol] |  | 4.81E+05 | 5.50E+06 | 1.32E+07 | 98%
7 | CCCCC/C=C\C/C=C\CCCCCCCC(OCCCCCCCCCCCCCCCC)O[Si](C)(C)OCCCCCCN(CCO)CCO (centres unmarked) [Example 44, 13-((8Z,11Z)-heptadeca-8,11-dien-1-yl)-3-(2-hydroxyethyl)-11,11-dimethyl-10,12,14-trioxa-3-aza-11-silatriacontan-1-ol] |  | 1.57E+05 | 2.08E+06 | 7.09E+06 | 94%
8 | CCCCC/C=C\C/C=C\CCCCCCCC(OCCCCCCCC/C=C\CCCCCCCC)O[Si](C)(C)OCCCCCCN(CCO)CCO (centres unmarked) [Example 45, (Z)-13-((8Z,11Z)-heptadeca-8,11-dien-1-yl)-3-(2-hydroxyethyl)-11,11-dimethyl-10,12,14-trioxa-3-aza-11-siladotriacont-23-en-1-ol] |  | 1.80E+05 | 2.42E+06 | 7.94E+06 | 96%
9 | CCCCC/C=C\C/C=C\CCCCCCCCOC(CCCCCCC/C=C\CCCCCCCC)O[Si](C)(C)OCCCCCCN(CCO)CCO (centres unmarked) [Example 46, (23Z,26Z)-13-((Z)-heptadec-8-en-1-yl)-3-(2-hydroxyethyl)-11,11-dimethyl-10,12,14-trioxa-3-aza-11-siladotriaconta-23,26-dien-1-ol] |  | 1.46E+05 | 1.93E+06 | 8.16E+06 | 95%
10 | CCCCCCCC/C=C\CCCCCCCCOC(CCCCCCC/C=C\CCCCCCCC)O[Si](C)(C)OCCCCCCN(CCO)CCO (centres unmarked) [Example 47, (Z)-13-((Z)-heptadec-8-en-1-yl)-3-(2-hydroxyethyl)-11,11-dimethyl-10,12,14-trioxa-3-aza-11-siladotriacont-23-en-1-ol] |  | 3.37E+04 | 1.29E+06 | 7.06E+06 | 89%
11 | CCCCC/C=C\C/C=C\CCCCCCCCOC(CCCCCCC/C=C\C/C=C\CCCCC)O[Si](C)(C)OCCCCCCN(CCO)CCO (centres unmarked) [Example 48, (23Z,26Z)-13-((8Z,11Z)-heptadeca-8,11-dien-1-yl)-3-(2-hydroxyethyl)-11,11-dimethyl-10,12,14-trioxa-3-aza-11-siladotriaconta-23,26-dien-1-ol] |  | 5.52E+02 | 1.65E+03 | 1.82E+03 | 99%
12 | CCCCCCCCCCCCCCCCOC(CCCCCCCCCCCCCCC)O[Si](C)(C)OCCCCCCN(CCO)CCO (centres unmarked) [Example 49, 3-(2-hydroxyethyl)-11,11-dimethyl-13-pentadecyl-10,12,14-trioxa-3-aza-11-silatriacontan-1-ol] |  | 1.35E+05 | 6.74E+05 | 1.20E+06 | 93%
13 | CCCCCCCC/C=C\CCCCCCCC(OCC(CCCCCC)CCCCCCCC)O[Si](C)(C)OCCCCCCN(CCO)CCO (centres unmarked) [Example 50, (Z)-13-(heptadec-8-en-1-yl)-16-hexyl-3-(2-hydroxyethyl)-11,11-dimethyl-10,12,14-trioxa-3-aza-11-silatetracosan-1-ol] |  | 5.85E+04 | 2.12E+06 | 8.19E+06 | 98%
14 | CCCCCCCC/C=C\CCCCCCCCOC(CC[C@@H](C)C1CCC2C3CCC4C[C@H](OC)CC[C@]4(C)C3CC[C@@]21C)O[Si](C)(C)OCCCCCCN(CCO)CCO (stereo partly drawn) [Example 51, (Z)-3-(2-hydroxyethyl)-13-((3R)-3-((3R,10S,13R)-3-methoxy-10,13-dimethylhexadecahydro-1H-cyclopenta[a]phenanthren-17-yl)butyl)-11,11-dimethyl-10,12,14-trioxa-3-aza-11-siladotriacont-23-en-1-ol] |  | 1.05E+04 | 1.70E+05 | 7.44E+05 | 92%
